# Experimental data from ChEMBL document CHEMBL6115030, “Systematic All-Hydrocarbon Stapling Analysis for Cecropin A Generates a Potent and Stable Antimicrobial Peptide” (J Med Chem, 2025).
# The source made the active and inactive calls. The calls are words filed in the database; no cut-off is given here. Bridge positions count the residues as written; N and C are the ends. Square brackets hold non-standard residues; d marks the D form. Peptide text beside a SMILES is read from it. * marks the point of attachment. S5 = C=CCCC[C@](C)(N)C(=O)O; X1 = CC[C@H](C)CCCCC(=O)*; dDab = NCC[C@@H](N)C(=O)O; Dab = NCC[C@H](N)C(=O)O
# Columns and labels:
# Pseudomonas aeruginosa [1] = test: Antibacterial activity against Pandrug-resistant Pseudomonas aeruginosa assessed as inhibition of bacterial growth measured after 24 hrs by broth microdilution method; assay type: functional
# Shigella flexneri = test: Antibacterial activity against Shigella flexneri 301 assessed as inhibition of bacterial growth measured after 24 hrs by broth microdilution method; assay type: functional
# Pseudomonas aeruginosa [2] = test: Antibacterial activity against Carbapenem-resistant Pseudomonas aeruginosa assessed as inhibition of bacterial growth measured after 24 hrs by broth microdilution method; assay type: functional
# Salmonella typhimurium = test: Antibacterial activity against Salmonella typhimurium assessed as inhibition of bacterial growth measured after 24 hrs by broth microdilution method; assay type: functional, Salmonella enterica subsp. enterica serovar Typhimurium; conditions: Salmonella enterica
# Acinetobacter baumannii = test: Antibacterial activity against Pandrug-resistant Acinetobacter baumannii assessed as inhibition of bacterial growth measured after 24 hrs by broth microdilution method; assay type: functional
# Klebsiella pneumoniae [3] = test: Antibacterial activity against Klebsiella pneumoniae ATCC 13883 assessed as inhibition of bacterial growth measured after 24 hrs by broth microdilution method; assay type: functional
# Klebsiella pneumoniae [4] = test: Antibacterial activity against Carbapenem-resistant Klebsiella pneumoniae assessed as inhibition of bacterial growth measured after 24 hrs by broth microdilution method; assay type: functional
# Staphylococcus aureus = test: Antibacterial activity against Staphylococcus aureus ATCC 25923 assessed as inhibition of bacterial growth measured after 24 hrs by broth microdilution method; assay type: functional
# Pseudomonas aeruginosa [5] = test: Antibacterial activity against Pseudomonas aeruginosa PAO1 assessed as inhibition of bacterial growth measured after 24 hrs by broth microdilution method; assay type: functional
# Mus musculus [6] = test: In vivo anti-inflammatory efficacy in Escherichia coli intraperitoneally injected into C57BL/6 mouse peritonitis model assessed as reduction in IL-1beta level in blood at 2.5 mg/kg, ip measured after 48 hrs by ELISA; assay type: functional, organism-based
# Escherichia coli [7] = test: In vivo antibacterial activity against Escherichia coli intraperitoneally injected into C57BL/6 mouse peritonitis model assessed as reduction in bacterial load in kidney at 2.5 mg/kg, ip measured after 48 hrs relative to control; assay type: functional, organism-based
# Escherichia coli [8] = test: In vivo antibacterial activity against Escherichia coli intraperitoneally injected into C57BL/6 mouse peritonitis model assessed as reduction in bacterial load in blood at 2.5 mg/kg, ip measured after 48 hrs relative to control; assay type: functional, organism-based
# Mus musculus [9] = test: In vivo anti-inflammatory efficacy in Escherichia coli intraperitoneally injected into C57BL/6 mouse peritonitis model assessed as reduction in TNF-alpha level in blood at 2.5 mg/kg, ip measured after 48 hrs by ELISA; assay type: functional, organism-based
# Escherichia coli [10] = test: In vivo antibacterial activity against Escherichia coli intraperitoneally injected into C57BL/6 mouse peritonitis model assessed as reduction in bacterial load in lung at 2.5 mg/kg, ip measured after 48 hrs relative to control; assay type: functional, organism-based
# Escherichia coli [11] = test: In vivo antibacterial activity against Escherichia coli intraperitoneally injected into C57BL/6 mouse peritonitis model assessed as reduction in bacterial load in liver at 2.5 mg/kg, ip measured after 48 hrs relative to control; assay type: functional, organism-based
# Escherichia coli [12] = test: In vivo antibacterial activity against Escherichia coli intraperitoneally injected into C57BL/6 mouse peritonitis model assessed as reduction in bacterial load in spleen at 2.5 mg/kg, ip measured after 48 hrs relative to control; assay type: functional, organism-based
# Mus musculus [13] = test: In vivo anti-inflammatory efficacy in Escherichia coli intraperitoneally injected into C57BL/6 mouse peritonitis model assessed as reduction in IL-6 level in blood at 2.5 mg/kg, ip measured after 48 hrs by ELISA; assay type: functional, organism-based
# [14] = Hemolytic activity in human RBC assessed as hemolysis incubated for 1 hr by microplate reader; assay type: toxicity, cell-based, Erythrocyte; conditions: erythrocyte, 1 h
SMILES,MIC (Pseudomonas aeruginosa [1]),MIC (Shigella flexneri),MIC (Pseudomonas aeruginosa [2]),MIC (Salmonella typhimurium),MIC (Acinetobacter baumannii),MIC (Klebsiella pneumoniae [3]),MIC (Klebsiella pneumoniae [4]),MIC (Staphylococcus aureus),MIC (Pseudomonas aeruginosa [5]),Activity (Mus musculus [6]),Activity (Escherichia coli [7]),Activity (Escherichia coli [8]),Activity (Mus musculus [9]),Activity (Escherichia coli [10]),Activity (Escherichia coli [11]),Activity (Escherichia coli [12]),Activity (Mus musculus [13]),Activity [14]
CC[C@H](C)[C@H](NC(=O)CNC(=O)[C@H](CC(=O)O)NC(=O)[C@H](CCCNC(=N)N)NC(=O)[C@@H](NC(=O)[C@H](CC(N)=O)NC(=O)[C@H](CCC(N)=O)NC(=O)CNC(=O)[C@@H](NC(=O)[C@H](CCCCN)NC(=O)[C@H](CCC(=O)O)NC(=O)[C@@H](NC(=O)[C@H](CCCCN)NC(=O)[C@H](CCCCN)NC(=O)[C@H](Cc1ccccc1)NC(=O)[C@H](CC(C)C)NC(=O)[C@H](CCCCN)NC(=O)[C@H](Cc1c[nH]c2ccccc12)NC(=O)[C@H](CCCCN)NC(C)=O)[C@@H](C)CC)C(C)C)[C@@H](C)CC)C(=O)N[C@H](C(=O)N[C@@H](CCCCN)C(=O)N[C@@H](C)C(=O)NCC(=O)N1CCC[C@H]1C(=O)N[C@@H](C)C(=O)N[C@H](C(=O)N[C@@H](C)C(=O)N[C@H](C(=O)N[C@@]1(C)CCC/C=C\CCC[C@@](C)(C(=O)N[C@@H](CCC(N)=O)C(=O)N[C@H](C(=O)N[C@@H](C)C(=O)N[C@@H](CCCCN)C(N)=O)[C@@H](C)CC)NC(=O)[C@H](C)NC(=O)[C@H](CCC(N)=O)NC(=O)CNC1=O)C(C)C)C(C)C)[C@@H](C)CC (Ac-KWKLFKKIEKVGQNIRDGIIKAGPAVAV[S5]GQA[S5]QIAK-NH2; staple (Z) 29-33),25 µM,< 0.78 µM,> 100 µM,1.5 µM,< 0.78 µM,1.56 µM,3.13 µM,1.56 µM,6.25 µM,–,–,–,–,–,–,–,–,–
CC[C@H](C)[C@H](NC(=O)CNC(=O)[C@H](CC(=O)O)NC(=O)[C@H](CCCNC(=N)N)NC(=O)[C@@H](NC(=O)[C@H](CC(N)=O)NC(=O)[C@H](CCC(N)=O)NC(=O)CNC(=O)[C@@H](NC(=O)[C@H](CCCCN)NC(=O)[C@H](CCC(=O)O)NC(=O)[C@@H](NC(=O)[C@H](CCCCN)NC(=O)[C@H](CCCCN)NC(=O)[C@H](Cc1ccccc1)NC(=O)[C@H](CC(C)C)NC(=O)[C@H](CCCCN)NC(=O)[C@H](Cc1c[nH]c2ccccc12)NC(=O)[C@H](CCCCN)NC(C)=O)[C@@H](C)CC)C(C)C)[C@@H](C)CC)C(=O)N[C@H](C(=O)N[C@@H](CCCCN)C(=O)N[C@@H](C)C(=O)NCC(=O)N1CCC[C@H]1C(=O)N[C@@H](C)C(=O)N[C@H](C(=O)N[C@@H](C)C(=O)N[C@H](C(=O)N[C@H](C(=O)NCC(=O)N[C@@H](CCC(N)=O)C(=O)N[C@@]1(C)CCC/C=C/CCC[C@@](C)(C(=O)N[C@@H](CCCCN)C(N)=O)NC(=O)[C@H]([C@@H](C)CC)NC(=O)[C@H](CCC(N)=O)NC(=O)[C@H]([C@@H](C)O)NC1=O)C(C)C)C(C)C)C(C)C)[C@@H](C)CC (Ac-KWKLFKKIEKVGQNIRDGIIKAGPAVAVVGQ[S5]TQI[S5]K-NH2; staple (E) 32-36),25 µM,< 0.78 µM,> 100 µM,3.13 µM,< 0.78 µM,3.13 µM,3.13 µM,1.56 µM,6.25 µM,–,–,–,–,–,–,–,–,–
CC(C)CCCCC(=O)N[C@@H](CCN)C(=O)N[C@H](C(=O)N[C@@H](CCN)C(=O)N[C@H]1CCNC(=O)[C@H]([C@@H](C)O)NC(=O)[C@H](CCN)NC(=O)[C@H](CCN)NC(=O)[C@H](CC(C)C)NC(=O)[C@@H](Cc2ccccc2)NC(=O)[C@@H](CCN)NC1=O)[C@@H](C)O.CC[C@H](C)CCCCC(=O)N[C@@H](CCN)C(=O)N[C@H](C(=O)N[C@@H](CCN)C(=O)N[C@H]1CCNC(=O)[C@H]([C@@H](C)O)NC(=O)[C@H](CCN)NC(=O)[C@H](CCN)NC(=O)[C@H](CC(C)C)NC(=O)[C@@H](Cc2ccccc2)NC(=O)[C@@H](CCN)NC1=O)[C@@H](C)O (X1-[Dab]T[Dab][Dab][dDab][dF]L[Dab][Dab]T; lactam 4-C),–,–,–,–,–,–,–,–,–,Active,Active,Active,Active,Active,Active,Active,Active,–
CC[C@H](C)[C@H](NC(=O)CNC(=O)[C@H](CC(=O)O)NC(=O)[C@H](CCCNC(=N)N)NC(=O)[C@@H](NC(=O)[C@H](CC(N)=O)NC(=O)[C@H](CCC(N)=O)NC(=O)CNC(=O)[C@@H](NC(=O)[C@H](CCCCN)NC(=O)[C@H](CCC(=O)O)NC(=O)[C@@H](NC(=O)[C@H](CCCCN)NC(=O)[C@H](CCCCN)NC(=O)[C@H](Cc1ccccc1)NC(=O)[C@H](CC(C)C)NC(=O)[C@H](CCCCN)NC(=O)[C@H](Cc1c[nH]c2ccccc12)NC(=O)[C@H](CCCCN)NC(C)=O)[C@@H](C)CC)C(C)C)[C@@H](C)CC)C(=O)N[C@H](C(=O)N[C@@H](CCCCN)C(=O)N[C@@H](C)C(=O)NCC(=O)N1CCC[C@H]1C(=O)N[C@@H](C)C(=O)N[C@H](C(=O)N[C@@H](C)C(=O)N[C@@]1(C)CCC/C=C\CCC[C@@](C)(C(=O)N[C@H](C(=O)N[C@@H](CCC(N)=O)C(=O)N[C@H](C(=O)N[C@@H](C)C(=O)N[C@@H](CCCCN)C(N)=O)[C@@H](C)CC)[C@@H](C)O)NC(=O)[C@H](CCC(N)=O)NC(=O)CNC(=O)[C@H](C(C)C)NC1=O)C(C)C)[C@@H](C)CC (Ac-KWKLFKKIEKVGQNIRDGIIKAGPAVA[S5]VGQ[S5]TQIAK-NH2; staple (Z) 28-32),25 µM,1.56 µM,> 100 µM,6.25 µM,< 0.78 µM,3.13 µM,6.25 µM,3.13 µM,6.25 µM,–,–,–,–,–,–,–,–,–
CC[C@H](C)[C@H](NC(=O)CNC(=O)[C@H](CC(=O)O)NC(=O)[C@H](CCCNC(=N)N)NC(=O)[C@@H](NC(=O)[C@H](CC(N)=O)NC(=O)[C@H](CCC(N)=O)NC(=O)CNC(=O)[C@@H](NC(=O)[C@H](CCCCN)NC(=O)[C@H](CCC(=O)O)NC(=O)[C@@H](NC(=O)[C@H](CCCCN)NC(=O)[C@H](CCCCN)NC(=O)[C@H](Cc1ccccc1)NC(=O)[C@H](CC(C)C)NC(=O)[C@H](CCCCN)NC(=O)[C@H](Cc1c[nH]c2ccccc12)NC(=O)[C@H](CCCCN)NC(C)=O)[C@@H](C)CC)C(C)C)[C@@H](C)CC)C(=O)N[C@H](C(=O)N[C@@H](CCCCN)C(=O)N[C@@H](C)C(=O)NCC(=O)N1CCC[C@H]1C(=O)N[C@@H](C)C(=O)N[C@@]1(C)CCC/C=C\CCC[C@@](C)(C(=O)N[C@@H](CCC(N)=O)C(=O)N[C@@H](C)C(=O)N[C@H](C(=O)N[C@@H](CCC(N)=O)C(=O)N[C@H](C(=O)N[C@@H](C)C(=O)N[C@@H](CCCCN)C(N)=O)[C@@H](C)CC)[C@@H](C)O)NC(=O)[C@H](C(C)C)NC(=O)[C@H](C(C)C)NC(=O)[C@H](C)NC1=O)[C@@H](C)CC (Ac-KWKLFKKIEKVGQNIRDGIIKAGPA[S5]AVV[S5]QATQIAK-NH2; staple (Z) 26-30),25 µM,1.56 µM,> 100 µM,6.25 µM,< 0.78 µM,3.13 µM,12.5 µM,3.13 µM,6.25 µM,–,–,–,–,–,–,–,–,Non-toxic
CC[C@H](C)[C@H](NC(=O)CNC(=O)[C@H](CC(=O)O)NC(=O)[C@H](CCCNC(=N)N)NC(=O)[C@@H](NC(=O)[C@H](CC(N)=O)NC(=O)[C@H](CCC(N)=O)NC(=O)CNC(=O)[C@@H](NC(=O)[C@H](CCCCN)NC(=O)[C@H](CCC(=O)O)NC(=O)[C@@H](NC(=O)[C@H](CCCCN)NC(=O)[C@H](CCCCN)NC(=O)[C@H](Cc1ccccc1)NC(=O)[C@H](CC(C)C)NC(=O)[C@H](CCCCN)NC(=O)[C@H](Cc1c[nH]c2ccccc12)NC(=O)[C@H](CCCCN)NC(C)=O)[C@@H](C)CC)C(C)C)[C@@H](C)CC)C(=O)N[C@H](C(=O)N[C@@H](CCCCN)C(=O)N[C@@H](C)C(=O)NCC(=O)N1CCC[C@H]1C(=O)N[C@@]1(C)CCC/C=C\CCC[C@@](C)(C(=O)NCC(=O)N[C@@H](CCC(N)=O)C(=O)N[C@@H](C)C(=O)N[C@H](C(=O)N[C@@H](CCC(N)=O)C(=O)N[C@H](C(=O)N[C@@H](C)C(=O)N[C@@H](CCCCN)C(N)=O)[C@@H](C)CC)[C@@H](C)O)NC(=O)[C@H](C(C)C)NC(=O)[C@H](C)NC(=O)[C@H](C(C)C)NC1=O)[C@@H](C)CC (Ac-KWKLFKKIEKVGQNIRDGIIKAGP[S5]VAV[S5]GQATQIAK-NH2; staple (Z) 25-29),25 µM,1.56 µM,> 100 µM,3.13 µM,< 0.78 µM,3.13 µM,6.25 µM,3.13 µM,6.25 µM,–,–,–,–,–,–,–,–,Non-toxic
